Here are results for 27 compounds from US20080234262A1 (Wyeth, priority 2007, published 2008).

The target in test [1] is PI3K (Homo sapiens, UniProt P42336). In words: Fluorescence polarization assay for PI3K.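 Note: PI3K kinase reaction on PIP2 with ATP, 30-60 min, product sensed by GST-GRP with red probe in fluorescence polarization (mP), controls without enzyme and at zero time.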 The class given is biochemical. As to conditions: PI3Kα; read-out: PI3Kα IC50. Background: In fluorescence polarisation assays a small probe gives low polarisation when free and higher when bound to something large.
The subject of test [2] is prostate line LNCap. Briefly: In vitro cell culture growth assay (MTS), LNCap.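 Note: viable cell density read by absorbance at 490 nm, growth expressed as percent of vehicle-treated cells on the same plate.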 The class given is cell-based, human. As to conditions: LNCap cells, three days after drug treatment.
Test [3] has as its system breast line MDA468. Briefly: In vitro cell culture growth assay (MTS), MDA468. As to conditions: MDA468 cells, three days after drug treatment. The class given is cell-based, human. The essentials:
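Steps: plate cells; add inhibitors the next day; incubate 3 days; add MTS dye, which viable cells convert metabolically; measure absorbance at 490 nm; calculate percent of control growth relative to vehicle-treated cells in the same plate.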

PI3K, sequence (P42336 whole entry): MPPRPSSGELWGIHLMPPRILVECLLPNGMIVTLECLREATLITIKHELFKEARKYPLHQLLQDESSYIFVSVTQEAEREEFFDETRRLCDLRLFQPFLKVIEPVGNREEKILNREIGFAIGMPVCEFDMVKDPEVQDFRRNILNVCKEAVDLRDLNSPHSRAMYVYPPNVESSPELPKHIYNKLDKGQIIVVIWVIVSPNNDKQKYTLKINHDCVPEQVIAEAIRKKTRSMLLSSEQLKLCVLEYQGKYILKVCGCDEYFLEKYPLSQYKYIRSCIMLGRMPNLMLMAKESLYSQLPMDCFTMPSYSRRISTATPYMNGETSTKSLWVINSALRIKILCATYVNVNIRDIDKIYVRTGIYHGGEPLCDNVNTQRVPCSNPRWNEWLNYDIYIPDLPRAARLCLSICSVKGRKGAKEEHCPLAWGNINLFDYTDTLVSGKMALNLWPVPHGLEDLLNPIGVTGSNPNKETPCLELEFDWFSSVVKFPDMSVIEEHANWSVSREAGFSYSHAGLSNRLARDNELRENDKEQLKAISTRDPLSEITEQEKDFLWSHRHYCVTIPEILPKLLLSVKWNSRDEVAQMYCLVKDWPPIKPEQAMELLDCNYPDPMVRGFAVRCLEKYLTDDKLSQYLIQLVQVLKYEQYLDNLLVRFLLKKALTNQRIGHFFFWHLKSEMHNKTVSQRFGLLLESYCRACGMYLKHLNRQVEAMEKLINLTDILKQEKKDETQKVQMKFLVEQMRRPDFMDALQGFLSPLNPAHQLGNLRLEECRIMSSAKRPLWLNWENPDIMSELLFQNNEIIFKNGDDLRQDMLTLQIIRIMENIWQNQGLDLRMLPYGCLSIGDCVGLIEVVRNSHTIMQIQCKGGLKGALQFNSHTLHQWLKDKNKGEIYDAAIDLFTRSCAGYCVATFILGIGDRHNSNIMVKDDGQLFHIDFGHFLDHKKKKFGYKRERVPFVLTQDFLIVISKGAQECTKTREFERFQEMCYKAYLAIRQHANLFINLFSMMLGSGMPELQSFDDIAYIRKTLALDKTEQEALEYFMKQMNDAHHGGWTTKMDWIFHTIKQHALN
PI3K, sequence (P27986 whole entry partner): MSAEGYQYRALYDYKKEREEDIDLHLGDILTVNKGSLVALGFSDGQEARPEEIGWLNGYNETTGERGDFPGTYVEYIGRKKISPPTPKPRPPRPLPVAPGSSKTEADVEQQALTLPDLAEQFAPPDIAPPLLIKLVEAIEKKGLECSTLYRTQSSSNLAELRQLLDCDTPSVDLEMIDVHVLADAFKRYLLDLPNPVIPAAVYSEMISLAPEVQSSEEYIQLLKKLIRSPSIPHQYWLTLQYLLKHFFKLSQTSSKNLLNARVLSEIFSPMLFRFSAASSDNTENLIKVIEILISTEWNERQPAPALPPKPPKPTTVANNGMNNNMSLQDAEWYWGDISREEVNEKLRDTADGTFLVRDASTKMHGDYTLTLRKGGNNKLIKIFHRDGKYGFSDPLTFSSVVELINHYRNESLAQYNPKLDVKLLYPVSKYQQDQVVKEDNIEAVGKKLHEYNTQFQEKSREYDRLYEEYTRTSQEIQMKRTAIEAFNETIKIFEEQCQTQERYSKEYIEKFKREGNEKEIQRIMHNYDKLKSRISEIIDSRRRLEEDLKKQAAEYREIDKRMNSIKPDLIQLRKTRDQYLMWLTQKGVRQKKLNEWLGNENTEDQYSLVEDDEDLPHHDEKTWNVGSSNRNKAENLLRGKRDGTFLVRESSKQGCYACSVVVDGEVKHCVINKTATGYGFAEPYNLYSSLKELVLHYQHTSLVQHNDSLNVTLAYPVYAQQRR

By IC50 is commonly meant the concentration needed to halve the response being measured. Regarding `CNC(=O)Nc1ccc(-c2nc(N3CCOCC3)c3cnn(C4CCN(C(=O)C(F)(F)F)CC4)c3n2)cc1` [Compound 763, 1-methyl-3-(4-{4-morpholin-4-yl-1-[1-(trifluoroacetyl)piperidin-4-yl]-1H-pyrazolo[3,4-d]pyrimidin-6-yl}phenyl)urea], the IC50 in test [1] stood at 0.154 µM; in test [2] (Homo sapiens, LNCaP, 72 h), 0.27 µM; in test [3] (Homo sapiens, 72 h), 0.5 µM.
Taken in the same sequence, the figures for `CONC(=O)Nc1ccc(-c2nc(N3CCOCC3)c3cnn(-c4ccccc4)c3n2)cc1` [Compound 541, 1-methoxy-3-[4-(4-morpholin-4-yl-1-phenyl-1H-pyrazolo[3,4-d]pyrimidin-6-yl)phenyl]urea] were 0.404 µM, 1.8 µM and 5 µM.
In the same order, the values of `Oc1cccc(-c2nc(N3CCOCC3)c3cnn(C4CCNCC4)c3n2)c1` [Compound 9] are 0.036 µM, 0.37 µM and 2.2 µM.
As for `O=C(c1cccnc1Cl)N1CCC(n2ncc3c(N4CCOCC4)nc(-c4ccc5[nH]ccc5c4)nc32)CC1` [Example 195, 1-{1-[(2-chloropyridin-3-yl)carbonyl]piperidin-4-yl}-6-(1H-indol-5-yl)-4-morpholin-4-yl-1H-pyrazolo[3,4-d]pyrimidine], the IC50 in test [1] is 1.69 µM; in test [2] (Homo sapiens, LNCaP, 72 h), 0.45 µM; in test [3] (Homo sapiens, 72 h), 1 µM.
Taken in the same sequence, the figures for `COC(=O)N1CCC(n2ncc3c(N4CCOCC4)nc(-c4ccc(NC(=O)Nc5ccc(F)cc5F)cc4)nc32)CC1` [Compound 861, methyl 4-[6-(4-{[(2,4-difluorophenyl)carbamoyl]amino}phenyl)-4-morpholin-4-yl-1H-pyrazolo[3,4-d]pyrimidin-1-yl]piperidine-1-carboxylate] were 0.25 µM, 0.11 µM and 0.58 µM.
In the same order, the values of `c1ccc(CN2CCC(n3ncc4c(N5CCOCC5)nc(-c5cc6ccccc6s5)nc43)CC2)cc1` [Example 67] are 2.91 µM, 10 µM and 12 µM.
Taken in the same sequence, the figures for `c1ccc(CN2CCC(n3ncc4c(N5CCOCC5)nc(-c5ccc6[nH]ccc6c5)nc43)CC2)cc1` [Example 45] were 1.01 µM, 1.4 µM and 1.9 µM.
In the case of `C/C=C/C(=O)N1CCC(n2ncc3c(N4CCOCC4)nc(-c4ccc(NC(=O)NC)cc4)nc32)CC1` [Compound 756, 1-[4-(1-{1-[(2E)-but-2-enoyl]piperidin-4-yl}-4-morpholin-4-yl-1H-pyrazolo[3,4-d]pyrimidin-6-yl)phenyl]-3-methylurea], the 50% inhibitory concentration (IC50) was found to be 0.174 µM in test [1]; 0.5 µM in test [2] (Homo sapiens, LNCaP, 72 h); 0.5 µM in test [3] (Homo sapiens, 72 h).
`CNC(=O)Nc1ccc(-c2nc(N3CCOCC3)c3cnn(C4CCN(C(=O)c5ccccn5)CC4)c3n2)cc1` [Example 418, 1-methyl-3-(4-{4-morpholin-4-yl-1-[1-(pyridin-2-ylcarbonyl)piperidin-4-yl]-1H-pyrazolo[3,4-d]pyrimidin-6-yl}phenyl)urea]: the IC50 is 0.124 µM in test [1]; 0.12 µM in test [2] (Homo sapiens, LNCaP, 72 h); 0.2 µM in test [3] (Homo sapiens, 72 h).
In the same order, the values of `CCNC(=S)N1CCC(n2ncc3c(N4CCOCC4)nc(-c4ccc(NC(=O)OC)cc4)nc32)CC1` [Compound 812, methyl [4-(1-{1-[(ethylamino)carbonothioyl]piperidin-4-yl}-4-morpholin-4-yl-1H-pyrazolo[3,4-d]pyrimidin-6-yl)phenyl]carbamate] are 0.688 µM, 2.4 µM and 3 µM.
In the same order, the values of `CN(C)CC(=O)Nc1ccc(-c2nc(N3CCOCC3)c3cnn(C4CCCCO4)c3n2)cc1` (stereo not drawn) [Compound 275] are 9 µM, 12 µM and 40 µM.
“methyl [4-(1-{1-[(6-fluoropyridin-3-yl)methyl]piperidin-4-yl}-4-morpholin-4-yl-1H-pyrazolo[3,4-d]pyrimidin-6-yl) phenyl]carbamate [Compound 453]”: the 50% inhibitory concentration (IC50) in test [1] worked out at 1.2 µM; in test [2] it was 0.9 µM; in test [3], 6 µM.
Take `Fc1ccc(CN2CCC(n3ncc4c(N5CCOCC5)nc(-c5ccc6[nH]ccc6c5)nc43)CC2)cc1` [Example 55]: the concentration for half-maximal inhibition (IC50) was 0.686 µM in test [1]; 2.5 µM in test [2] (Homo sapiens, LNCaP, 72 h); 3 µM in test [3] (Homo sapiens, 72 h).
With `NC(=O)Nc1ccc(-c2nc(N3CCOCC3)c3cnn(C4CCN(Cc5cccnc5)CC4)c3n2)cc1` [Compound 558, 1-(4-{4-morpholin-4-yl-1-[1-(pyridin-3-ylmethyl)piperidin-4-yl]-1H-pyrazolo[3,4-d]pyrimidin-6-yl}phenyl)urea], the IC50 was determined as 0.082 µM in test [1]; 0.2 µM in test [2] (Homo sapiens, LNCaP, 72 h); 0.2 µM in test [3] (Homo sapiens, 72 h).
As to `CC(C)(C)OC(=O)N1CCC(n2ncc3c(N4CCOCC4)nc(-c4ccc(NC(=O)Nc5ccccc5)cc4)nc32)CC1` [Compound 768, tert-butyl 4-(6-{4-[(anilinocarbonyl)amino]phenyl}-4-morpholin-4-yl-1H-pyrazolo[3,4-d]pyrimidin-1-yl)piperidine-1-carboxylate], the 50% inhibitory concentration (IC50) in test [1] came to 0.074 µM; in test [2] (Homo sapiens, LNCaP, 72 h), 0.205 µM; in test [3] (Homo sapiens, 72 h), 0.71 µM.
Taken in the same sequence, the figures for `NNC(=O)Nc1ccc(-c2nc(N3CCOCC3)c3cnn(-c4ccccc4)c3n2)cc1` [Compound 538, N-[4-(4-morpholin-4-yl-1-phenyl-1H-pyrazolo[3,4-d]pyrimidin-6-yl)phenyl]hydrazinecarboxamide] were 0.17 µM, 5.2 µM and 8 µM.
Taken in the same sequence, the figures for `COC(=O)Nc1ccc(-c2nc(N3CCOCC3)c3cnn(C4CCN(C(=O)c5ccccc5F)CC4)c3n2)cc1` [Example 443, methyl (4-{1-[1-(2-fluorobenzoyl)piperidin-4-yl]-4-morpholin-4-yl-1H-pyrazolo[3,4-d]pyrimidin-6-yl}phenyl)carbamate] were 1.14 µM, 0.25 µM and 0.5 µM.
In the same order, the values of `CNC(=O)Nc1ccc(-c2nc(N3CCOCC3)c3cnn(C4CCC(O)CC4)c3n2)cc1` (stereo not drawn) [Example 323, 1-{4-[1-(4-hydroxycyclohexyl)-4-morpholin-4-yl-1H-pyrazolo[3,4-d]pyrimidin-6-yl]phenyl}-3-methylurea] are 0.039 µM, 0.054 µM and 0.2 µM.
Take `Oc1cccc(-c2nc(N3CCOCC3)c3cnn(C4CCN(Cc5ccco5)CC4)c3n2)c1` [Compound 15]: the IC50 was 0.055 µM in test [1]; 0.074 µM in test [2] (Homo sapiens, LNCaP, 72 h); 0.6 µM in test [3] (Homo sapiens, 72 h).
On to `CNC(=O)Nc1ccc(-c2nc(N3CCOCC3)c3cnn(C4CCS(=O)(=O)CC4)c3n2)cc1` [Compound 869, 1-{4-[1-(1,1-dioxidotetrahydro-2H-thiopyran-4-yl)-4-morpholin-4-yl-1H-pyrazolo[3,4-d]pyrimidin-6-yl]phenyl}-3-methylurea], for which the IC50 in test [1] is 0.074 µM; in test [2] (Homo sapiens, LNCaP, 72 h) it was 0.54 µM; in test [3] (Homo sapiens, 72 h), 0.59 µM.
Regarding `CNC(=O)Nc1ccc(-c2nc(N3CCOCC3)c3cnn(C4CCN(Cc5cnccc5OC)CC4)c3n2)cc1` [Compound 636, 1-[4-(1-{1-[(4-methoxypyridin-3-yl)methyl]piperidin-4-yl}-4-morpholin-4-yl-1H-pyrazolo[3,4-d]pyrimidin-6-yl)phenyl]-3-methylurea], the half-inhibitory concentration (IC50) in test [1] was found to be 0.082 µM; in test [2], 0.07 µM; in test [3], 0.22 µM.
Consider `Nc1ccc(-c2nc(N3CCOCC3)c3cnn(C4CCN(CCCCO)CC4)c3n2)cc1` [Compound 749, 4-{4-[6-(4-aminophenyl)-4-morpholin-4-yl-1H-pyrazolo[3,4-d]pyrimidin-1-yl]piperidin-1-yl}butan-1-ol], for which the 50% inhibitory concentration (IC50) turned out to be 4.23 µM in test [1]; 12 µM in test [2] (Homo sapiens, LNCaP, 72 h); 30 µM in test [3] (Homo sapiens, 72 h).
Taken in the same sequence, the figures for `O=C(NO)Nc1ccc(-c2nc(N3CCOCC3)c3cnn(C4CCN(Cc5cccnc5)CC4)c3n2)cc1` [Compound 317, 1-hydroxy-3-(4-{4-morpholin-4-yl-1-[1-(pyridin-3-ylmethyl)piperidin-4-yl]-1H-pyrazolo[3,4-d]pyrimidin-6-yl}phenyl)urea] were 0.259 µM, 1.1 µM and 1.5 µM.
In the same order, the values of `O=C(Nc1ccc(-c2nc(N3CCOCC3)c3cnn(C4CCN(Cc5cccnc5)CC4)c3n2)cc1)NC1CC1` [Example 405, 1-cyclopropyl-3-(4-{4-morpholin-4-yl-1-[1-(pyridin-3-ylmethyl)piperidin-4-yl]-1H-pyrazolo[3,4-d]pyrimidin-6-yl}phenyl)urea] are 0.438 µM, 0.027 µM and 0.1 µM.
In the same order, the values of `CCOC(=O)N1CCC(n2ncc3c(N4CCOCC4)nc(-c4ccc(Nc5ncc[nH]5)cc4)nc32)CC1` [Compound 887, ethyl 4-{6-[4-(1H-imidazol-2-ylamino)phenyl]-4-morpholin-4-yl-1H-pyrazolo[3,4-d]pyrimidin-1-yl}piperidine-1-carboxylate] are 0.168 µM, 1.2 µM and 2.3 µM.
Consider `CC(C)OC(=O)N1CCC(n2ncc3c(N4CCOCC4)nc(-c4ccc(N)cc4)nc32)CC1` [Compound 830, isopropyl 4-[6-(4-aminophenyl)-4-morpholin-4-yl-1H-pyrazolo[3,4-d]pyrimidin-1-yl]piperidine-1-carboxylate], for which the concentration for half-maximal inhibition (IC50) in test [1] worked out at 12 µM; in test [2] (Homo sapiens, LNCaP, 72 h), 1.8 µM; in test [3] (Homo sapiens, 72 h), 16 µM.
Taken in the same sequence, the figures for `CC(=O)Nc1ccc(-c2nc(N3CCOCC3)c3cnn(C4CCN(C(=O)c5cccnc5)CC4)c3n2)cc1` [Example 159, N-(4-{4-morpholin-4-yl-1-[1-(pyridin-3-ylcarbonyl)piperidin-4-yl]-1H-pyrazolo[3,4-d]pyrimidin-6-yl}phenyl)acetamide] were 0.878 µM, 0.63 µM and 2.5 µM.
